Patent publication US7452965B2, “Colon tumor specific binding peptides” (University of Utah Research Foundation, priority 2002, dated 2008)
Where two headings read alike, the source gives them in different places. Bridge positions count the residues as written; N and C are the ends. Square brackets hold non-standard residues; d marks the D form. Ends that are not written are not given here. Peptide text beside a SMILES is read from it.

Key:
[1] = test system: HT29 cells; details: for shift of EC50 of competition relative to RPM peptide: alanine mutants vs RPM peptide; for ability of peptide to compete RPM (CPIEDRPMC) phage binding to HT29 cells: peptide 0-1000 μM; for ability of peptide to compete RPM (CPIEDRPMC) phage binding to HT29 cells / level of RPM associated phage binding to HT29 cells in presence of competitor: 4° C.; for level of RPM associated phage binding to HT29 cells in presence of competitor: percentage of phage bound in absence of competitor
Method: Phage binding assay. HT29 cells were incubated with peptide in binding buffer at concentrations of 0, 0.1, 1, 10, 100, or 1000 μM for 30 minutes at 4° C. After 30 minutes of incubation, 10^10 pfu of phage were added to the cells and incubated at 4° C. for an additional 45 minutes. Following incubation, cells were washed 6× with wash buffer and the phage remaining bound were eluted with glycine. The number of phage bound to the cells was quantified with real time PCR.
To determine whether […] (SEQ ID NO: 134) displaying phage bind to HT29 cells specifically, a competition assay was performed using phage and synthetic peptides, peptides corresponding to the specific sequence, […] (SEQ ID NO: 134), and the non-specific sequence, […] (SEQ ID NO: 135), were synthesized by standard methods and oxidized to form a disulfide bond. Reaction of the peptides before and after oxidation with ElIman's reagent was performed to verify presence of the disulfide bond. […] In FIG. 2A, HT29 cells were incubated with increasing log concentrations of […] (SEQ ID NO: 134) peptide and with a constant number of either specific or non-specific phage. The number of phage binding to the HT29 cells was quantified and the percentage binding calculated based on the number of phage that bind in the absence of competitor. The sequence […] The reciprocal experiment was also done with HT29 cells incubated with increasing log concentrations of specific or non-specific peptide and a constant concentration of phage displaying the peptide […] (SEQ ID NO: 134).
The phage selection procedure produced naturally occurring substitution mutants so the phage and the peptide could be used to determine a functional consensus sequence for the family. HT29 cells were incubated with increasing log concentrations of […] (SEQ ID NO: 134) peptide and a constant number of phage displaying one of the sequences were selected.
To examine the importance of each residue within the RPM sequence for binding to HT29 cells, peptides were synthesized having alanine mutations in either the arginine, proline, or methionine residue and used in phage competition assay as described above.

[2] = test system: HT29 cells; experiment: RPM-FITC immunofluorescence staining of cultured cells (confocal microscopy); assay type: cell-based
Method: Cell Culture: HT29, HCT116, or a 50% mixture of HT29 and HCT116 cells were plated on glass slides (Nalge). Wells were incubated with 10 μM of RPM-FITC peptide for 45 minutes at 4° C. or 37° C. After washing with wash buffer, cells were blocked with 1% NGS, 0.1% BSA, 0.1% Triton-X100 in PBS. Following the blocking step, wells were incubated with the polyclonal p53 antibody, D10, (Santa Cruz) for 1 hour at room temperature. The wells were washed and incubated with the secondary antibodies GαFITC Alexa 488 (Molecular Probes) and GαMouse Alexa 647 (Molecular Probes) and the nuclear stain Topro-3 (Molecular Probes). Wells were washed and mounted using Pro-Long Anti-fade (Molecular Probes). Slides were analyzed by confocal microscopy.
The peptide then was tested to determine whether it was able to differentiate HT29 from HCT116 cells. In order to distinguish HT29 from HCT116 cells in our immunohistochemical assays, staining was carried out in the presence of the transcription factor, p53. Staining for the protein p53 is a way to visually discriminate HT29 from HCT116 cells, since p53 is mutated and accumulates in HT29 cells but is wild type in HCT116 cells and thus, is rapidly degraded. […] To test the ability of the fluorescein conjugated peptide (RPM-FITC) to preferentially bind HT29 cells, HT29 and HCT116 cells were stained with RPM-FITC. […] When a mixture of HT29 and HCT116 cells was incubated with RPM-FITC and concurrently analyzed for the presence of p53, cells with the highest level of p53 protein also bound RPM-FITC (FIG. 5A).
The ability of a molecule to translocate across the cell membrane is important for drug delivery. HT29 cells were incubated for 1 hour at either 4° C. or 37° C. in the presence of 100 uM RPM-FITC. After incubation, cells were washed, fixed with 2% paraformaldehyde, then incubated with an anti-FITC secondary antibody to amplify the fluorescence signal.

[3] = test system: lung and liver cancer, grossly uninvolved lung, liver, and stomach; experiment: Peptide-binding assay on frozen tissue sections; parameters: species or system human; details: cryostat sections
Method: (§1) A biopsy of sporadic colon adenocarcinoma, liver and lung sarcoma, and grossly uninvolved colon, liver, lung, and stomach were frozen in optimum cutting temperature (OCT) and […] cryostat sections placed on glass slides. Sections were stained with H&E and untreated adjacent sections were incubated with RPM-FITC. After incubating with RPM-FITC in binding buffer for 45 minutes at 4° C., slides were washed and mounted using Pro-Long Anti-Fade (Molecular Probes). Nuclei were visualized by a quick incubation with Topro-3 (Molecular Probes) present in the last wash. Samples were analyzed by confocal microscopy.
To determine whether RPM-FITC was able to bind cancers originated from tissues other than colon or to other normal tissues, a peptide-binding assay was performed on cryostat sections of lung and liver cancer, and grossly uninvolved lung, liver, and stomach. As a positive control, a section of colon tumor was stained in parallel with the other sections. […] Binding to HT29 Cells is Dependent on the Amino Acids, RPMC-C (SEQ ID NO: 136).

[4] = test system: human colon tumor; experiment: Peptide-binding assay on frozen tissue sections
Method: as §1

[5] = test system: HCT116 cells; experiment: MTT cell viability after RPM-KLAK or KLAK; assay type: cell-based; details: 72 hours at 37° C.
Method: (§2) RPM-KLAK (SEQ ID NO: 132) and KLAK (SEQ ID NO: 133) on HT29 and HCT116 cells. HT29 and HCT116 cells were incubated with increasing log concentrations of RPM-KLAK (SEQ ID NO: 132) or KLAK (SEQ ID NO: 133) for 72 hours at 37° C. After incubation, MTT was added to a final concentration of […] and incubated at 37° C. for 1 hour. The media/MTT was removed carefully and the cells dissolved with 0.1N HCl in isopropanol. Absorbance was read on a plate reader (Cytofluor II, Perceptive Biosystems) at 570 nm.
(§3) Since RPM-FITC is internalized at 37° C., RPM may be used to deliver a toxin to HT29 cells. […] Cells that were incubated with (KLAK)2 (SEQ ID NO: 138) alone or with free peptide were refractory to death induced by the toxin. However, when a peptide that was specific and also internalized by cells was conjugated to (KLAK)2 (SEQ ID NO: 138), the cells were killed. RPM was coupled to (KLAK)2 (SEQ ID NO: 138) and incubated with HT29 and HCT116 cells with either (KLAK)2 (SEQ ID NO: 138) alone as a negative control or RPM-(KLAK)2 (SEQ ID NO: 5). Cells were treated for 72 hours at 37° C. At the end of the incubation, cell viability was measured by MTT assay. […] This was indeed observed for HCT116 incubation with RPM (KLALK)2 (SEQ ID NO: 5) (FIG. 6B).

[6] = test system: HT29 cells; experiment: MTT cell viability after RPM-KLAK or KLAK; assay type: cell-based; details: 72 hours at 37° C.
Method: as §2, §3

[7] = test system: HT29 cells; experiment: Protease assay: RPM phage binding to protease-treated cells; details: 37° C.
Method: HT29 cells were incubated at 37° C. with either active or boiled Collagenase diluted 1:20 for 10 minutes, Trypsin-EDTA 0.25% (Gibco) for 5 minutes or Proteinase K (Gibco) diluted 1:600 for 1 minute. After incubation, cells were then incubated with RPM bearing phage as described above. The number of phage remaining bound was quantified by real time PCR.
(§4) In order to further this observation, HT29 cells were treated with active or boiled proteases to determine the effect of treatment on the ability of an RPM displaying phage to bind. HT29 cells were treated with active or boiled collagenase for 15 minutes, trypsin for 5 minutes, or proteinase K for 0.5 minutes at 37° C. After protease treatment, cells were washed, then an equal number of phage were added and allowed to bind. […] The decrease in phage binding to the HT29 cells was due to the protease activity since boiling the proteases abolished the effect with phage binding returning to levels of that observed for PBS treated cells (FIG. 6B). […] After treating HT29 cells with proteases as described above, MTT was added to the cells and incubated for 45 minutes at 37° C. After incubation, the cells were solubilized with 0.1N HCl in isopropanol and the absorbance due to MTT incorporation was determined.

[8] = test system: HT29 cells; experiment: MTT viability of protease-treated cells; assay type: cell-based; details: MTT 45 minutes at 37° C. after protease treatment
Method: as §4

CC[C@H](C)[C@@H]1NC(=O)[C@@H]2CCCN2C(=O)[C@@H](N)CSSC[C@@H](C(=O)O)NC(=O)[C@H](CCSC)NC(=O)[C@@H]2CCCN2C(=O)[C@H](C)NC(=O)[C@H](CC(=O)O)NC(=O)[C@H](CCC(=O)O)NC1=O [APM] (H-CPIEDAPMC-OH; disulfide 1-9 (inferred); N-terminus and C-terminus assumed)
EC50 [1]: 690 µM | shift of EC50 of competition relative to RPM peptide [1]: ~100 fold

CC[C@H](C)[C@@H]1NC(=O)[C@@H]2CCCN2C(=O)[C@@H](N)CSSC[C@@H](C(=O)O)NC(=O)[C@H](CCSC)NC(=O)[C@@H]2CCCN2C(=O)[C@H](CCCNC(=N)N)NC(=O)[C@H](CC(=O)O)NC(=O)[C@H](CCC(=O)O)NC1=O [CPIEDRPMC, cys-pro-ile-glu-asp-arg-pro-met-cys] (H-CPIEDRPMC-OH; disulfide 1-9)
effect of unlabeled competitor on RPM-FITC staining of HT29 cells [2]: able to abolish | ability of peptide to compete RPM (CPIEDRPMC) phage binding to HT29 cells [1]: able to compete | ability of peptide to compete RPM (CPIEDRPMC) phage binding to HT29 cells ([1]; listed as RPM peptide): successfully abolished binding | level of RPM associated phage binding to HT29 cells in presence of competitor [1]: less than 4% | EC50 ([1]; read-out: EC50 of competition, competition of RPM displaying phage on HT29 cells): 5 µM | labeling of lung and liver cancer and uninvolved lung, liver, stomach [3]: failed to stain | effect of unlabeled competitor on RPM-FITC binding to colon tumor [4]: abrogate binding

CC[C@H](C)[C@@H]1NC(=O)[C@@H]2CCCN2C(=O)[C@@H](N)CSSC[C@@H](C(=O)O)NC(=O)[C@H](C)NC(=O)[C@@H]2CCCN2C(=O)[C@H](CCCNC(=N)N)NC(=O)[C@H](CC(=O)O)NC(=O)[C@H](CCC(=O)O)NC1=O [RPA] (H-CPIEDRPAC-OH; disulfide 1-9 (inferred); N-terminus and C-terminus assumed)
EC50 [1]: 545 µM | shift of EC50 of competition relative to RPM peptide [1]: ~100 fold

(KLAK)2: antimicrobial toxin that selectively disrupts the mitochondrial membrane of eukaryotic cells, SEQ ID NO: 138 / 133 (KLAKKLAK) [reference compound]
effect on HCT116 cell viability [5]: did not effect the viability | effect on HT29 cell viability [6]: did not effect the viability

A11 D RPM: RPM peptide consisting of all D amino acids ([dC][dP][dI][dE][dD][dR][dP][dM][dC]; cysteine pairing not given here)
ability of peptide to compete RPM (CPIEDRPMC) phage binding to HT29 cells [1]: not able to compete | ability of peptide to compete RPM (CPIEDRPMC) phage binding to HT29 cells ([1]; listed as peptide synthesized with all D amino acids): failed to compete

CKHLGPQLC (disulfide 1-9 (inferred)) [reference compound]
effect of unlabeled competitor on RPM-FITC staining of HT29 cells [2]: unaffected | ability of peptide to compete RPM (CPIEDRPMC) phage binding to HT29 cells [1]: not able to compete | ability of peptide to compete RPM (CPIEDRPMC) phage binding to HT29 cells ([1]; listed as unrelated peptide): failed to block | level of RPM associated phage binding to HT29 cells in presence of competitor [1]: 100%

RPM middle: peptide bearing the RPM motif in the middle of the peptide, CPIRPMEDC (SEQ ID NO: 137)
fold less potent than RPM in competing with phage for HT29 cell binding ([1]; compared to RPM): over 100 fold | ability of peptide to compete RPM (CPIEDRPMC) phage binding to HT29 cells [1]: failed to compete

collagenase
decrease of RPM phage binding to active protease treated HT29 cells [7]: 85% | average absorbance (MTT incorporation) of treated cells [8]: 0.189

trypsin
decrease of RPM phage binding to active protease treated HT29 cells [7]: 90% | average absorbance (MTT incorporation) of treated cells [8]: 0.175
